This note sets out measurements from article PMC12774438, “CBL ubiquitin ligase targets translation as a degrader E3” (Chemical Science, 2025).

For data set [1], the system named is HeLa cells. Description: CellTiter-Glo2.0 cell viability assay. The class given is cell-based. As to conditions: for viable cells (lowest): concentrations of 16.10 µM or higher. As to the method:
Supplementary Figure 5. Characterisation of cytotoxicity effects of CP-eIFTerminators and […]
A. Measurement of cell viability (%) in HeLa cells following 3-hr treatments with cell-penetrating peptides. A Cell Titer-Glo2.0 cell viability assay was performed to assess viability of HeLa cells following a 3-hr treatment with a dilution series of each CP-eIFTerminator or parental warhead (CP-CBLock or CP-eIF4G1-D5S). The concentration range of each peptide in the 13-point serial dilution was 0.16-24.4 μM.
Data on CP-eIFTerminator2 are not shown as it was insoluble (n = 3, mean ± Standard error of the mean (SEM)).
B. Measurement of cell viability (%) in HeLa cells following 8 hr treatments with cell- […]
viability of HeLa cells following an 8-hr treatment with a dilution series of each CP-eIFTerminator, CP-CBLock, or CP-eIF4G1-D5S. The concentration range of each peptide in the 13-point serial dilution was 0.16-24.4 μM. CP-eIFTerminator2 was not
(1 picture or pasted object on this page, not shown here)
MgCl2. After the liquid was removed, 30 μL 2x LDS mix (prepared as described above) was used to elute the IP samples. The samples were boiled at 92°C for 10 min and 28 μL were loaded on a 4-12% Bis-Tris SDS-PAGE gel, along with the whole cell lysates that were prepared in 75 μL RIPA buffer. The gel was subsequently transferred and western blotted.
Antibodies included anti-actin, anti-HA, anti-K48 antibodies as primaries, as well as IRDye800CW goat anti-mouse IgG secondary antibody and IRDye680LT goat anti-rabbit […]
CellTiter-Glo2.0 Cell Viability Assay
Cells were seeded onto a Greiner 384 small volume plate using a Multidrop TM Combi Reagent Dispenser (Thermo Scientific). The seeding density was 2000 cells/well in a volume of 15 μL per well. After incubating the 384-well plate overnight at 37°C, 5% CO 2, the medium on the plate was removed using a Bluewasher (Blue Cat Bio). […] The plate was read using a PHERAstar FSX (BMG Labtech). Raw data were exported from the Pherastar as a Microsoft Excel file and analysed in Excel, and the processed data were plotted in GraphPad Prism v9.5.1. […]

In data set [2] the target is T1, eIF4E (Homo sapiens, UniProt P06730).
T1 construct: assessed the effects on the endogenous levels of eIF4E; endogenous in cells; host or cells: HeLa
Description: Western blot of endogenous eIF4E (and eIF4A, eIF4G, FITC) in HeLa cells. The class given is cell-based. As to conditions: 3 h, result in words; for eIF4E degradation, PROTAC versus individual warheads: 10 µM. As to the method:
Western blot procedures for cell-based assays
Three washes with 1 mL PBS were performed before harvesting cells with a cell lifter. The cells were frozen in liquid nitrogen and stored at -70°C. The lysis buffer comprised 50 mM Tris-HCl (pH 7.5), 150 mM NaCl, 1% Triton-X, 1% SDS, 1 μL benzonase and one tablet of the Pierce TM Protease Inhibitor Tablets, EDTA-free (ThermoFisher Sceintific) in PBS except for HA-tag and Myc-tag IP. As for HA-tag and Myc-tag IP, the lysis buffer consisted of 50 mM Tris-HCl (pH 7.5), 150 mM NaCl, 1 mM EDTA, 1% IGEPAL CA-630, 10% glycerol, 20 μM PMSF, 1 mM DTT, and a single Protease Inhibitor Tablet in PBS.
The cells were lysed in 35 μL lysis buffer at 4°C by vortexing every 10 min over a period of 90 min. Protein concentration in the cell lysate was measured by Bradford assay.
Lysates were immunoprecipitated in addition to inputs when appropriate. SDS-PAGE and immunoblotting analysis were performed subsequently. […]
CellTiter-Glo2.0 Cell Viability Assay […]
A 13-point serial dilution series of 0.163 μM –
24.4 μM of each peptide dissolved in DMSO was dispensed with the highest concentration of DMSO at less than 0.5%. Three replicates were run per condition. The assay plate was incubated for 3 hr or 8 hr at 37°C, 5% CO 2. Following this, the liquid on the assay plate was removed using the Bluewasher. […]
Comparison of CP-eIFTerminator peptides and warheads in HeLa cells
HeLa cells were seeded in 6 cm dishes at a cell density of 1.5 x10^6 per dish. After overnight incubation at 37°C, 5% CO 2, cells were treated with […] along with 10 μM of respective cell-penetrating peptides. Peptides were reconstituted in water immediately before addition to the cell culture. An equal volume of water was added as a negative control.
Cells were harvested 3 hr after peptide incubation at 37°C, 5% CO 2 for western blot analysis.
Anti-actin, anti-eIF4EA, anti-eIF4E, anti-eIF4G, and anti-FITC antibodies, as well as […]
secondary IgG in Table 3 were used for Western blot.
Time course of CP-eIFTerminator4 in HeLa cells
0.5 x 10^6 HeLa cells were seeded in 35 mm dishes. A time course experiment was initiated after overnight incubation at 37°C, 5% CO 2. For each time point (0.5, 3, 6, 12, 24 hr), cells were treated with fresh medium containing 100 ng/mL EGF along with 20 μM CP-eIFTerminator4 or water. All dishes were harvested at the same time, after varying incubations with the peptide.
Titration of CP-eIFTerminator4 in HeLa and U-2 OS cells […]
Immediately after this, 2.5 μM, 10 μM, or 50 μM CP-eIFTerminator4 was added to U-2 OS cells. 5 μM, 10 μM, or 20 μM CP-eIFTerminator4 was added in the case of HeLa cells. […]
15022) or 50 μM chloroquine (Cell Signaling Technology, Cat. No.: 14774S) and incubated for 4 hr at 37 °C, 5% CO 2. […] The cell lysates were analysed by western blot. […]

Where a SMILES comes first, the peptide text is derived from it. Some results are limits rather than exact numbers.

T1 sequence (P06730 whole entry): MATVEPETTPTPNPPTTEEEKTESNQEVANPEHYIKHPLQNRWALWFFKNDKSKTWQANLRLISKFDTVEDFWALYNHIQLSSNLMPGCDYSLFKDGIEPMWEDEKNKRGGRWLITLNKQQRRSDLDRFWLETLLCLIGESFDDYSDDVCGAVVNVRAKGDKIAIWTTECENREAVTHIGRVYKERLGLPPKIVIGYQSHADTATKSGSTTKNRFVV

As for `CC[C@H](C)[C@H](NC(=O)[C@H](CCCCN)NC(=O)[C@@H](NC(=O)[C@H](CCC(N)=O)NC(=O)[C@@H](N)CCCNC(=N)N)[C@@H](C)CC)C(=O)N[C@@H](Cc1c[nH]c2ccccc12)C(=O)N[C@@H](Cc1ccccc1)C(=O)N[C@@H](CCC(N)=O)C(=O)N[C@@H](CC(N)=O)C(=O)N[C@@H](CCCNC(=N)N)C(=O)N[C@@H](CCCNC(=N)N)C(=O)N[C@@H](CCSC)C(=O)N[C@@H](CCCCN)C(=O)N[C@@H](Cc1c[nH]c2ccccc12)C(=O)N[C@@H](CCCCN)C(=O)N[C@@H](CCCCN)C(=O)NCC(=O)NCC(=O)N[C@@H](CO)C(=O)N[C@@H](CCCCN)C(=O)N[C@@H](CCCCN)C(=O)N[C@@H](CCCNC(=N)N)C(=O)N[C@@H](Cc1ccc(O)cc1)C(=O)N[C@@H](CO)C(=O)N[C@@H](CCCNC(=N)N)C(=O)N[C@@H](CCC(=O)O)C(=O)N[C@@H](Cc1ccccc1)C(=O)N[C@@H](CC(C)C)C(=O)N[C@@H](CC(C)C)C(=O)NCC(=O)N[C@@H](Cc1ccccc1)C(N)=O` [CP-eIF4G1-D5S] (H-RQIKIWFQNRRMKWKKGGSKKRYSREFLLGF-NH2; N-terminus assumed), the “viable cells (lowest)” value in data set [1] (3 h post-peptide treatment) was at least 35%; in data set [1] (8 h post-peptide treatment) it was at least 25%. Further, the “concentration at which cytotoxicity was exhibited” value in data set [1] (CellTiter-Glo2.0, 0.16–24.4 µM, 3 h and 8 h, 100 ng/mL EGF, n = 3) is given as at least 16.10 µM. Besides, in data set [2], the “eIF4E degradation, PROTAC versus individual warheads” value is reported as “do not trigger eIF4E degradation”. Further, in data set [2], the “effect on eIF4A1, eIF4E and eIF4G1 levels” value is “minimal effects”.
With “N'-RQIKIWFQNRRMKWKKGGSMTVEEMDSWIKSWDQR-C' [CP-CBLock]”, in data set [2], the “eIF4E degradation, PROTAC versus individual warheads” value is on record as “do not trigger eIF4E degradation”; the “effect on eIF4A1, eIF4E and eIF4G1 levels” value was “minimal effects”.
